Experimental data published in patent US11795165B2, “Tetrahydro-benzoazepine glycosidase inhibitors” (Asceneuron SA, priority 2018, dated 2023).

Target: His-Tagged hOGA (human O-GlcNAcase) (Homo sapiens (Human), UniProt O60502)
Assay: Human O-GlcNAcase enzyme inhibition assay (OGA enzyme inhibition assay)
Assay type: biochemical
Details: His-Tagged hOGA 20 nM, FL-GlcNAc 10 μM, 60 min at room temperature, pH 6.5; activity classes
Protocol: Example B01: Human O-GlcNAcase Enzyme Inhibition Assay
5 μl of the appropriate concentration of a solution of inhibitor in McIlvaine's Buffer (pH 6.5) in 2% DMSO (for a dose response curve calculation) is added into each well of a 384-well plate (Greiner, 781900). Then, 20 nM of His-Tagged hOGA and 10 μM of FL-GlcNAc (Fluorescein mono-beta-D-(2-deoxy-2-N-acetyl) glucopyranoside; Marker Gene Technologies Inc, M1485) were added to the 384-well plate for a final volume of 20 μl. After incubation for 60 min at room temperature, the reaction was terminated by the addition of 10 μL of stop buffer (200 mM glycine, pH 10.75). The level of fluorescence (Δexc 485 nm; (Δemm 520 nm) was read on a PHERAstar machine. The amount of fluorescence measured was plotted against the concentration of inhibitor to produce a sigmoidal dose response curve to calculate an IC50. All individual data was corrected by subtraction of the background (Thiamet 3 uM=100% inhibition) whilst 0.5% DMSO was considered as the control value (no inhibition).

Chain of His-Tagged hOGA (human O-GlcNAcase) (O60502 whole entry): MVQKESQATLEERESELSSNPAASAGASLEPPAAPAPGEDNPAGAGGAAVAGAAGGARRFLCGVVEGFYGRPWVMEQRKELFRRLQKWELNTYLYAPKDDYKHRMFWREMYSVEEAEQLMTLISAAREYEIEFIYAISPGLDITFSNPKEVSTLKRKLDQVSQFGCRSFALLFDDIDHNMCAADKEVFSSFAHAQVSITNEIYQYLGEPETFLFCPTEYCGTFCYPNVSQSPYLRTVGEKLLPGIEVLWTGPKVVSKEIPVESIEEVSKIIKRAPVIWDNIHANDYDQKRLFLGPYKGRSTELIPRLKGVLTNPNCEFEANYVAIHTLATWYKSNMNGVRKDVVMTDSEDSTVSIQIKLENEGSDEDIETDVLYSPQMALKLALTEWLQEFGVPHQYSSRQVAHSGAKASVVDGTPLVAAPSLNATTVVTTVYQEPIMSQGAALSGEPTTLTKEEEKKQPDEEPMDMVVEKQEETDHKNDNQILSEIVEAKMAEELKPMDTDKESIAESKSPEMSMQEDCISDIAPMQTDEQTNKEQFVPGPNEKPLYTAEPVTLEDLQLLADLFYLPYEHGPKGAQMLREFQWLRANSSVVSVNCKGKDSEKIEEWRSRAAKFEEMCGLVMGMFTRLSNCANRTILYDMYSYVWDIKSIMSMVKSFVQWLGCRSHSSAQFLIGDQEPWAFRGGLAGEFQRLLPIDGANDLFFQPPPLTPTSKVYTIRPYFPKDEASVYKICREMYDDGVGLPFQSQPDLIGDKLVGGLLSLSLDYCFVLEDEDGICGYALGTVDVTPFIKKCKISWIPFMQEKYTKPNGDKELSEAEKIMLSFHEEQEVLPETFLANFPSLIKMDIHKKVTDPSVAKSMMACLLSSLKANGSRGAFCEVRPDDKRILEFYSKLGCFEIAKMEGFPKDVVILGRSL

For “5-(1-(7-methoxy-2-methyl-1,2,4,5-tetrahydro-3H-benzo[d]azepin-3-yl)ethyl)benzo[d]thiazole [Example 19]”, which IC50 is on record?
Its IC50 is 50 to 200 nM.

With `COc1ccc2c(c1Cl)CCN(C(C)c1ccc3scnc3c1)CC2` (racemic) [Example 10, 5-(1-(6-chloro-7-methoxy-1,2,4,5-tetrahydro-3H-benzo[d]azepin-3-yl)ethyl)benzo[d]thiazole] as the compound, how does the IC50 read?
The IC50 was 50 to 200 nM.

`COc1cc2c(cc1Cl)CCN(C(C)c1ccc3scnc3c1)CC2` (racemic) [Example 11, 5-(1-(7-chloro-8-methoxy-1,2,4,5-tetrahydro-3H-benzo[d]azepin-3-yl)ethyl)benzo[d]thiazole] was tested. Which IC50 did it give?
The IC50 was under 50 nM.

With `COc1ccc2c(c1)CCN(C(C)c1ccc3nccnc3c1)CC2` (racemic) [Example 12, 7-methoxy-3-(1-(quinoxalin-6-yl)ethyl)-2,3,4,5-tetrahydro-1H-benzo[d]azepine] as the compound, how does the IC50 read?
Its IC50 is under 50 nM.

How did the IC50 turn out when `CC(c1ccc2scnc2c1)N1CCCc2cc(Br)ccc2C1` (racemic) [Example 13, 5-(1-(7-bromo-1,3,4,5-tetrahydro-2H-benzo[c]azepin-2-yl)ethyl)benzo[d]thiazole] was run?
The IC50 was 200 to 1000 nM.

With `CC(c1ccc2scnc2c1)N1CCc2ccc(Br)cc2CC1` (racemic) [Example 14, 5-(1-(7-bromo-1,2,4,5-tetrahydro-3H-benzo[d]azepin-3-yl)ethyl)benzo[d]thiazole] as the compound, how does the IC50 read?
Its IC50 is under 50 nM.

Which IC50 does the source give for `CC(c1ccc2scnc2c1)N1CCCc2cc(C#N)ccc2C1` (racemic) [Example 15, 2-(1-(benzo[d]thiazol-5-yl)ethyl)-2,3,4,5-tetrahydro-1H-benzo[c]azepine-7-carbonitrile] here?
The IC50 was 200 to 1000 nM.

With `CC(c1ccc2scnc2c1)N1CCc2ccc(C#N)cc2CC1` (racemic) [Example 16, 3-(1-(benzo[d]thiazol-5-yl)ethyl)-2,3,4,5-tetrahydro-1H-benzo[d]azepine-7-carbonitrile] as the compound, how does the IC50 read?
The IC50 was under 50 nM.

Which IC50 does the source give for `CC(c1ccc2scnc2c1)N1CCCc2cc(S(C)(=O)=O)ccc2C1` (racemic) [Example 17, 5-(1-(7-(methylsulfonyl)-1,3,4,5-tetrahydro-2H-benzo[c]azepin-2-yl)ethyl)benzo[d]thiazole] here?
Its IC50 is 200 to 1000 nM.

For `CC(c1ccc2scnc2c1)N1CCc2ccc(S(C)(=O)=O)cc2CC1` (racemic) [Example 18, 5-(1-(7-(methylsulfonyl)-1,2,4,5-tetrahydro-3H-benzo[d]azepin-3-yl)ethyl)benzo[d]thiazole], which IC50 is on record?
Its IC50 is under 50 nM.

How did the IC50 turn out when `CC(c1ccc2scnc2c1)N1CCc2ccccc2CC1` (racemic) [Example 20, 5-(1-(1,2,4,5-tetrahydro-3H-benzo[d]azepin-3-yl)ethyl)benzo[d]thiazole] was run?
The IC50 was under 50 nM.

`CC(c1ccc2scnc2c1)N1CCc2ccc(Oc3cccc(F)n3)cc2CC1` (racemic) [Example 23, 5-(1-(7-((6-fluoropyridin-2-yl)oxy)-1,2,4,5-tetrahydro-3H-benzo[d]azepin-3-yl)ethyl)benzo[d]thiazole] was tested. Which IC50 did it give?
Its IC50 is under 50 nM.

How did the IC50 turn out when `CC(c1ccc2scnc2c1)N1CCc2ccc(OC(F)F)cc2CC1` (racemic) [Example 24, 5-(1-(7-(difluoromethoxy)-1,2,4,5-tetrahydro-3H-benzo[d]azepin-3-yl)ethyl)benzo[d]thiazole] was run?
The IC50 was under 50 nM.

`CC(C)Oc1ccc2c(c1)CCN(C(C)c1ccc3scnc3c1)CC2` (racemic) [Example 25, 5-(1-(7-isopropoxy-1,2,4,5-tetrahydro-3H-benzo[d]azepin-3-yl)ethyl)benzo[d]thiazole] was tested. Which IC50 did it give?
The IC50 was 50 to 200 nM.

How did the IC50 turn out when `CC(C)COc1ccc2c(c1)CCN(C(C)c1ccc3scnc3c1)CC2` (racemic) [Example 26, 5-(1-(7-isobutoxy-1,2,4,5-tetrahydro-3H-benzo[d]azepin-3-yl)ethyl)benzo[d]thiazole] was run?
Its IC50 is 200 to 1000 nM.

With `COc1ccc2c(c1)CCN(Cc1ccc3nsnc3c1)C(C)C2` (racemic) [Example 28, 5-((7-methoxy-2-methyl-1,2,4,5-tetrahydro-3H-benzo[d]azepin-3-yl)methyl)benzo[c][1,2,5]thiadiazole] as the compound, how does the IC50 read?
Its IC50 is 1000 to 10000 nM.
